Measurements as given in patent US5436243A, “Aminoanthraquinone derivatives to combat multidrug resistance” (priority 1993, dated 1995).
Entries after “also recorded” stand apart in the source; their conditions may differ. Where two headings read alike, the source gives them in different places.

Experiments:
MCF7 Adr 10 [1] = assay: 72 hour MTT proliferation assay, reversal of drug resistance in MCF7 Adr 10; assay type: cell-based, human; details: [1c] 0 μM; for IC50: Homo sapiens, NCI/ADR-RES
Description: (§1) In 72 hour MTT proliferation assays using the following method, compounds 1b, 1c and 1d were assessed for inhibition of Vinca alkaloid and anthracycline drug resistance in MDR MCF7. Additionally, compounds 1b and 1c were assessed for potentiation of sensitivity to Vinca alkaloid and anthracycline drugs in the parental MCF7 WT cell line.
(§2) METHOD: 5000 cells per well were plated in 100 μl of IMDM containing 10% FCS and allowed to adhere overnight. The following day the cells were treated with N-substituted 1,4-diaminoanthraquinones and exposed to graded concentrations of antineoplastic agents. 50 μl of IMDM 10% FCS containing either vehicle or N-substituted 1,4-diaminoanthraquinones at 3 times the final tested concentration was added to cells at timed intervals. The plates were incubated for 2 hours at 37° C. to allow maximal cellular accumulation of N-substituted 1,4-diaminoanthraquinones. 40 μl aliquots of IMDM 10% FCS containing either vehicle or graded concentrations of antineoplastic drugs at 5 times the final concentration were added to treatment groups. Following this addition, 10 μl of IMDM 10% FCS containing either vehicle or N-substituted 1,4-diaminoanthraquinone at 5 times the final concentration was added to each group of wells. The cells were incubated for 72 hours after treatment. At this time the viable cells in each treatment group were estimated in a colorimetric assay by adding MTT and incubating the cells at 37° C. for 3-4 hours. The media in each well was aspirated and MTT formazan was solubilized in isopropyl alcohol acidified with 0.1 N HCl. The absorbance of the solubilized formazan was quantitated using a plate reader spectrophotometer. […] The concentrations of antineoplastic drugs which inhibited proliferation by 50% (IC50's) were estimated by calculating a percentage from the ratio: antineoplastic drug treated groups/control group absorbance and plotting the dose response curve on semilog paper. The IC50 was estimated from this curve. To assess the effects of inhibition of resistance by N-substituted 1,4-diaminoanthraquinones, the percentages were calculated relative to cell groups treated with resistance modifier alone and IC50's calculated as above. A reversal factor was calculated by dividing the IC50 to the antineoplastic drug alone (Control group) by the IC50 to antineoplastic drug in cells treated with resistance modifier.

MCF7 WT [2] = assay: 72 hour MTT proliferation assay, potentiation of sensitivity in MCF7 WT; assay type: cell-based, human
Description: as §1, §2

MCF7 WT [3] = assay: Tumor cell clonogenic assay, MCF7 WT; assay type: cell-based, human; details: Homo sapiens, MCF7, read-out: Continuous Exposure IC50, MCF7 WT
Description: The tumor cell clonogenic assays measure clonal proliferation of tumor cells. In this assay, 300-500 cells are plated in 10 cm^2 wells, allowed to adhere overnight, and are treated the following day. Tumor cell colonies were counted after 10-12 days of culture. […] The IC50's are calculated as described above for the MTT proliferation assays.

MCF7 Adr 10 [4] = assay: Tumor cell clonogenic assay, MCF7 ADR 10; assay type: cell-based, human; details: Homo sapiens, NCI/ADR-RES, read-out: Continuous Exposure IC50, MCF7 ADR 10
Description: The tumor cell clonogenic assays measure clonal proliferation of tumor cells. In this assay, 300-500 cells are plated in 10 cm^2 wells, allowed to adhere overnight, and are treated the following day. Tumor cell colonies were counted after 10-12 days of culture. The times of exposure in these experiments are similar; however, the concentrations of FCS are 20% in the CFU-GM assay and 10% in the tumor cell clonogenic assays. The IC50's are calculated as described above for the MTT proliferation assays.

[5] = Partition in Bligh-Dyer extracts; assay type: physicochemical
Description: At these wavelengths, there was minimal absorbance by cellular components contained in the chloroform phase. […] METHOD: […] The monolayers were treated with 25 μM 1b or 1c and incubated at 37° C. After incubating the samples for the times indicated in FIG. 1, the monolayers were washed three times with DPBS and detached using 1 ml of Trypsin-EDTA.An aliquot of the cell suspension was counted using a Coulter Counter and a 0.8 ml aliquot was extracted in a Bligh-Dyer extraction (Bligh et at., Can. J. Biochem. 31:911-916 (1959)). The absorbance of the lower chloroform phase was measured at 648 nm and 600 nm using a spectrophotometer. The amount of 1b or 1c present in the extract was quantitated from a standard curve performed in cell extracts. The data is expressed as nmol anthraquinone/10^6 cells.

PKC [6] = assay: Micellar PKC screening assay; assay type: biochemical
Source text: The N-substituted diaminoanthraquinone, 1b, (1,4-bis-[[3'-(diethylamino)propyl]amino]anthraquinone), was identified as a PKC inhibitor in the micellar PKC screening assay and in platelets. […] Spectrophotometric analysis of 1b and lc indicated they were excellent chromophores with absorbance maxima at 648 and 600 nm in chloroform, respectively, and extinction coefficients of approximately 20,000. At these wavelengths, there was minimal absorbance by cellular components contained in the chloroform phase. These properties of 1b and 1c were utilized to determine the time course of accumulation of these compounds in MDR MCF7 Adr 10 cells.
The activities of 1a, 1b, 1c and 1d and mitoxantrone, an anthraquinone antineoplastic drug, were evaluated in vinblastine drug accumulation assays performed by the following method. […] Mitoxantrone was identified as a PKC inhibitor in miceliar PKC assays. Compound 1d (1,4-bis-[[2-(4-morpholino)ethyl]amino]anthraquinone) was only evaluated in cellular studies.

[7] = system: MCF7 Adr 10 human breast cancer cells; assay: Vinblastine accumulation assay, MCF7 Adr 10; assay type: cell-based; details: for activity in vinblastine accumulation assay / drug accumulation: MDR MCF7
Description: [^3 H] vinblastine ([^3 H] VLB) was added to a final concentration of 100 nM and the cells were incubated for 2.5 hours. At this time, the cells were washed 3 times in ice cold PBS and lysed in buffer containing 0.1% Triton X-100. Net accumulation of [^3 H] vinblastine was expressed as pmol/mg protein. In [^3 H]

casein kinase 2 = assay: Casein kinase 2 inhibition; assay type: biochemical
Source text: One possible explanation for stimulation of phosphorylation of P-glycoprotein and MARCKS is that 1c may activate PKC or other cellular kinases by signal transduction pathways that have not yet been identified to phosphorylate these proteins. An alternative explanation for stimulation of phosphorylation of P-glycoprotein and MARCKS is that 1c inhibits protein phosphatases.

MDR cell lines = details: literature, cited from earlier work
[8] = clinical trials; cited from earlier work
patients [9] = details: cited from earlier work
PKC [10] = details: literature; cited from earlier work
[11] = system: patients with tumors clinically resistant to adriamycin; details: cited from earlier work
P-glycoprotein [12] = details: literature; cited from earlier work
P-glycoprotein [13] = details: cited from earlier work
P-glycoprotein [14] = details: intact MDR cells and MDR membrane vesicles; cited from earlier work
patients [15] = details: human, in vivo; cited from earlier work
[16] = [3H] VLB binding to MCF7 WT membrane vesicles; design: species or system human; details: MCF7 WT vesicles
Description: METHOD: Membrane vesicles from sensitive and MDR MCF7 were prepared by nitrogen cavitation and isolated by centrifugation in discontinuous sucrose gradients. […] In the presence of 100 nM [^3 H] VLB and ATP, total and nonspecific binding of [^3 H] VLB (experimentally defined as binding in the presence of a 100 μM unlabeled VLB) was measured. Association of [^3 H] […] In contrast, association of [^3 H] […] VLB with MCF7 WT vesicles.

[17] = molecular target: P-glycoprotein in MCF7 Adr 10 membrane vesicles (Homo sapiens, UniProt P08183)
Chain of P-glycoprotein in MCF7 Adr 10 membrane vesicles (P08183 whole entry): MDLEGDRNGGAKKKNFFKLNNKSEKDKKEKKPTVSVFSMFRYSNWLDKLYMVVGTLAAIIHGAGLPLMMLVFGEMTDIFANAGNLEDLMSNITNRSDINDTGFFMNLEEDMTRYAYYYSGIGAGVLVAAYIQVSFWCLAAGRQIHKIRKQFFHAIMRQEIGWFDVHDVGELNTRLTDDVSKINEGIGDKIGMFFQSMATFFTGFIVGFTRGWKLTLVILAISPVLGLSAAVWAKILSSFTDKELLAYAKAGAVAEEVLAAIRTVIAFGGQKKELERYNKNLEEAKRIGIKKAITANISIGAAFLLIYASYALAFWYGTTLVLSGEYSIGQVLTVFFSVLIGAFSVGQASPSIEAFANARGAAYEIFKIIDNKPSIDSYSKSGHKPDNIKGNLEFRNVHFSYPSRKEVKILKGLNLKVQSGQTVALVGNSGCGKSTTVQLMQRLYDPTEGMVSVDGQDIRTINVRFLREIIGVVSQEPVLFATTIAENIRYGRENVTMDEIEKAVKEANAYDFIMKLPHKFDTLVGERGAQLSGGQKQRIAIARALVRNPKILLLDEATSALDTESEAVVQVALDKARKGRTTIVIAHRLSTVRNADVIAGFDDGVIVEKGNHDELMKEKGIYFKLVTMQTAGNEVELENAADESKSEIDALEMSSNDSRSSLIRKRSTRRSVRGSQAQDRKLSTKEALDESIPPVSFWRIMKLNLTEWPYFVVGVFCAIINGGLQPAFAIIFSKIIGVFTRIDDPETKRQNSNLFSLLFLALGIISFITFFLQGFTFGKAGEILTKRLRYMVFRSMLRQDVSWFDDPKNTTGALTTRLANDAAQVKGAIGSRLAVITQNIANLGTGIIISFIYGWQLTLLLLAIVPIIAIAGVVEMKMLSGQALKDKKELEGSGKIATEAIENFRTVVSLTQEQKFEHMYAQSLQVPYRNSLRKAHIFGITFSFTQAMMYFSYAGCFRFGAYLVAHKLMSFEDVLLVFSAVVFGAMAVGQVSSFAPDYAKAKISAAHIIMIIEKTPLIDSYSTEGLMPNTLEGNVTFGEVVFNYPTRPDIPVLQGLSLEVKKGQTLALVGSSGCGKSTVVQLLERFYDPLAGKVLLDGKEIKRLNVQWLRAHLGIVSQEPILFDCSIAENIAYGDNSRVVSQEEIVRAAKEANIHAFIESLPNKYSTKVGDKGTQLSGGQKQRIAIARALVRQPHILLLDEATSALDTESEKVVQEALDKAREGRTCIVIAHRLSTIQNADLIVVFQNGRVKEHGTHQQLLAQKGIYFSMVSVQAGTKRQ

For `CC[C@]1(O)C[C@H]2CN(CCc3c([nH]c4ccccc34)[C@@](C(=O)OC)(c3cc4c(cc3OC)N(C=O)[C@H]3[C@@](O)(C(=O)OC)[C@H](OC(C)=O)[C@]5(CC)C=CCN6CC[C@]43[C@@H]65)C2)C1` [VCR, reference compound], the IC50 (MCF7 Adr 10 [1]; average ± SD of 3 experiments, read-out: VCR IC50) was 3300 nM, the “Reversal Factor (VCR)” value (MCF7 Adr 10 [1]) was 1.0 and the IC50 (MCF7 WT [2]; Homo sapiens, MCF7, read-out: VCR IC50) was 1.9 nM. For the same compound, the “Reversal Factor (VCR)” value (MCF7 WT [2]; [1c] 0 μM, MCF7 WT) was 1.0, the IC50 (MCF7 WT [3]) was 0.4 nM and the IC50 (MCF7 Adr 10 [4]) was 970 nM.
With `O=C1c2c(O)ccc(O)c2C(=O)c2c(NCCNCCO)ccc(NCCNCCO)c21` [mitoxantrone, reference compound] the “partition into the lower chloroform phase” value [5] was “does not partition into the lower chloroform phase”, the “PKC activity in micellar PKC screening assay” value (PKC [6]) was “PKC inhibitor” and the “inhibitory activity in in vitro PKC assays relative to 1b or 1c” value (PKC [6]) was “greater inhibitory activity”. For the same compound, the “activity in vinblastine accumulation assay / drug accumulation” value [7] was “significant loss of activity; also recorded: did not show significant activity”, the “activity in vinblastine accumulation assay / drug accumulation” value ([7]; listed as Mitoxantrone) was “does not increase drug accumulation” and the “inhibitory activity in in vitro casein kinase 2 assays relative to 1b or 1c” value (casein kinase 2) was “greater inhibitory activity”. For the same compound, the “drug accumulation and reversal of resistance in MDR cell lines” value (“drug accumulation and reversal” for short) (MDR cell lines) was “less cross-resistance”.
In the case of `COc1cccc2c1C(=O)c1c(O)c3c(c(O)c1C2=O)C[C@@](O)(C(=O)CO)C[C@@H]3O[C@H]1C[C@H](N)[C@H](O)[C@H](C)O1` [ADR, reference compound], the IC50 (MCF7 Adr 10 [1]; average ± SD of 4 experiments, read-out: ADR IC50) is reported as 38000 nM, the “Reversal Factor (ADR)” value (MCF7 Adr 10 [1]) is reported as 1.0 and the IC50 (MCF7 WT [3]) is reported as 5.6 nM. For the same compound, the IC50 (MCF7 Adr 10 [4]) was 3400 nM.
For `OCCN1CCN(CC/C=C2\c3ccccc3Sc3ccc(C(F)(F)F)cc32)CC1` [Trans-flupenthixol], the “drug accumulation and reversal” value (MDR cell lines) is given as “increased doxorubicin accumulation and reversed the MDR phenotype more effectively in a number of MDR cell lines than verapamil” and the “antipsychotic potency relative to the cis isomer” value [8] is given as “much less potent antipsychotic in clinical trials than the cis isomer”.
For `COc1ccc(CCN(C)CCCC(C#N)(c2ccc(OC)c(OC)c2)C(C)C)cc1OC` (stereo not drawn) [verapamil], the “concentrations inhibiting the MDR phenotype” value (MDR cell lines) is given as 2 to 10 µM, the “drug accumulation and reversal” value (MDR cell lines) is given as “more effective in reversal of resistance to anticancer drugs in other studies” and the “drug accumulation and reversal” value (MDR cell lines; listed as Verapamil) is given as “increases in accumulation and decreases in resistance to natural product chemotherapeutic drugs”. For the same compound, the dose-limiting toxicity (patients [9]) was “dose-limiting cardiac toxicity” and the “PKC inhibition in vitro” value (PKC [10]) was “non-specifically inhibit PKC in vitro”.
With `CCCCCCCCNc1ccc(NCCCCCCCC)c2c1C(=O)c1ccccc1C2=O` [Compound 1a, 1,4-bis-(octylamino) anthraquinone] the “PKC activity in micellar PKC screening assay” value (PKC [6]) was “PKC stimulation” and the “activity in vinblastine accumulation assay / drug accumulation” value [7] was “inactive; also recorded: did not show significant activity”.
In the case of `COc1cccc2c1C(=O)c1c(O)c3c(c(O)c1C2=O)C[C@@](O)(C(C)=O)C[C@@H]3O[C@H]1C[C@H](N)[C@H](O)[C@H](C)O1` [DNR, reference compound], the IC50 (MCF7 Adr 10 [1]; average ± SD of 3 experiments, read-out: DNR IC50) is reported as 6700 nM and the “Reversal Factor (DNR)” value (MCF7 Adr 10 [1]) is reported as 1.0.
In the case of `CN1CCN(CCCN2c3ccccc3Sc3ccc(C(F)(F)F)cc32)CC1` [trifluoperazine], the “drug accumulation and reversal” value (MDR cell lines) is given as “increase drug accumulation and decrease resistance in MDR cell lines”, the tumor responses ([11]; 36 patients, oral, with constant infusion adriamycin) is given as “One complete response and six partial responses” and the dose-limiting toxicity ([11]; human, in vivo) is given as “Neurotoxicity of trifluoperazine to the extrapyramidal tracts was dose-limiting”. For the same compound, the “plasma concentrations below those optimal for modulation of chemoresistance in vitro” value ([11]; human, in vivo) was “approximately 10 fold”, the “phosphorylation of the P-glycoprotein” value (P-glycoprotein [12]) was “stimulate phosphorylation of the P-glycoprotein” and the “PKC inhibition in vitro” value (PKC [10]) was “non-specifically inhibit PKC in vitro”.
For `CN(C)CCOc1ccc(/C(=C(/CCCl)c2ccccc2)c2ccccc2)cc1` [toremifene], the “drug accumulation and reversal” value (MDR cell lines) is listed as “can also modulate resistance of estrogen receptor-negative MDR cell lines”.
In the case of `CCCCCCCCCCCCCC(=O)O[C@@H]1[C@@H](C)[C@@]2(O)[C@@H](C=C(CO)C[C@]3(O)C(=O)C(C)=C[C@@H]23)[C@@H]2C(C)(C)[C@]12OC(C)=O` [phorbol myristate acetate], the “phosphorylation of the P-glycoprotein” value (P-glycoprotein [12]) is given as “stimulate phosphorylation of the P-glycoprotein”.
In the case of Cyclosporin A, the “inhibition of vincristine and vinblastine binding to P-glycoprotein” value (P-glycoprotein [13]) is given as “competitively inhibits vincristine and vinblastine binding to the P-glycoprotein” and the “[3H] azidopine photoaffinity labeling of P-glycoprotein” value (P-glycoprotein [14]) is given as “inhibit”.
For `O=C1c2ccccc2C(=O)c2c(NCCN3CCOCC3)ccc(NCCN3CCOCC3)c21` [Compound 1d, 1,4-bis-[[2-(4-morpholino)ethyl]amino]anthraquinone], the minimal effective concentration ([7]; Homo sapiens, NCI/ADR-RES, 100 nM [3H] VLB, 2.5 hours, FIGS. 2 and 3, read-out: lowest concentration which causes a doubling of basal accumulation of vinblastine) was 2.5 µM and the “activity in vinblastine accumulation assay / drug accumulation” value [7] was “increase vinblastine accumulation in MDR MCF7”.
For O-acetyl C9 -cyclosporin A [SDZ 33-243], the “[3H] azidopine photoaffinity labeling of P-glycoprotein” value (P-glycoprotein [14]) is given as “inhibit”.
In the case of `COc1ccc(CCN(C)CCC[C@](C#N)(c2ccc(OC)c(OC)c2)C(C)C)cc1OC` [D-verapamil], the toxicity in humans (patients [15]) is listed as “too toxic to use at high concentrations in humans”.
In the case of `CCC1(O)CC2CN(CCc3c([nH]c4ccccc34)C(C(=O)OC)(c3cc4c(cc3OC)N(C)C3C(O)(C(=O)OC)C(OC(C)=O)C5(CC)C=CCN6CCC43C65)C2)C1` (stereo not drawn) [[^3 H] VLB], the “association of [3H] VLB relative to MCF7 Adr 10” value [16] is reported as “approximately 15%”, the “enhancement of [3H] VLB association by addition of ATP” value [17] is reported as 2-3 fold and the “time to maximal association of [3H] VLB” value [17] is reported as at most 15 min.
